Results: US7776527B2, “Methods and compositions for reducing microbial induced apoptosis” (The Regents of the University of California, priority 2003, dated 2010)
Like-named read-outs stand apart in the source and are kept apart here. Peptide text beside a SMILES is read from it. * marks the point of attachment. Cbz = O=C(OCc1ccccc1)*; CH2F = FC*

Tests used:
[1] = test system: IKKβ-deficient macrophages; assay: TUNEL apoptosis of IKKβ-deficient macrophages treated with TLR agonists or TNF-α; format: cell-based, mouse; details: without p38 inhibition, 12 hrs
Procedure: Bone marrow derived macrophages from Ikkβ F/F (IKKβ+/+) or MX1Cre-Ikkβ F/F (IKKβ−/−) mice were untreated or treated with LPS (100 ng/ml), LTA from B. subtilis (10 μg/ml), poly(IC) (10 μg/ml), SBLP (Pam3CSK4, 1 μg/ml), CpG-containing DNA (1 μM), and mouse TNF-α (10 ng/ml). After 12 hrs, apoptotic cell death was quantitated by TUNEL staining. Inset, macrophage lysates were analyzed by immunoblotting with antibodies specific to IKKβ and p38. (FIG. 2e)

[2] = test system: bone marrow derived macrophages (BMDMs); format: cell-based, mouse; details: for apoptotic response of BMDMs: C57BL/6J BMDMs
[3] = molecular target: T1, PKR (Mus musculus, UniProt Q03963); assay: PKR activation by autophosphorylation and eIF2α phosphorylation in macrophages; format: cell-based; details: for PKR activation (autophosphorylation, eIF2α phosphorylation): wt macrophages
T1 construct: endogenous in cells; host or cells: wild-type mouse bone marrow derived macrophages (BMDMs)
T1 sequence (Q03963 1-515): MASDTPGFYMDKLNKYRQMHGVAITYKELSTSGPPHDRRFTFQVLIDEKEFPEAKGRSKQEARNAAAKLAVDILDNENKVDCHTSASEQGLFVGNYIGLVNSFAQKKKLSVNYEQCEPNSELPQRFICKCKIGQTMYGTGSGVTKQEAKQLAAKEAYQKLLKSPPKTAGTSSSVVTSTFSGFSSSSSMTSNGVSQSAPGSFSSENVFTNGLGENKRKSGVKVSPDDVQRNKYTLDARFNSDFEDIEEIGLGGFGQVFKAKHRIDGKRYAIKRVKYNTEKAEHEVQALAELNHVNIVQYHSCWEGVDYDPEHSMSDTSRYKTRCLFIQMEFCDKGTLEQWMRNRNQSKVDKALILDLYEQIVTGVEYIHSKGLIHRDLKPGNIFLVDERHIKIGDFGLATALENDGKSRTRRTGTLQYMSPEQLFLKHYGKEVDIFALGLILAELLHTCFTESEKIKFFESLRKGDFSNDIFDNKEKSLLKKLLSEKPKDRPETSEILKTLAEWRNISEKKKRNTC
Procedure: Whole cell extracts were prepared and PKR activity was measured by autophosphorylation (Gusella et al. J Immunol 154, 345-54, 1995) after immunoprecipitation with anti-PKR antibody (Santa Cruz).
Phosphorylation of eIF2α was detected by immunoblotting with antibody against phosphorylated eIF2α (Biosource, Camarillo, Calif.). The same blot was stripped and probed with antibody against total eIF2αIKK and MAPK activation were measured as described (Park et al. Science 297, 2048-51, 2002). Phosphorylation of STAT1 (Medzhitov et al. Nature 388, 394-7 (1997) was monitored by immunoblotting with anti-phospho-STAT1 antibody (Cell Signaling, Beverly, Mass.).
Bone marrow derived macrophages (BMDMs) (wt) were stimulated with LPS (100 ng/ml) or poly(IC) (10 μg/ml) or left unstimulated. At the indicated time points cells were lysed and PKR activation was monitored by autophosphorylation. Gel loading was controlled by immunoblotting for PKR. The same lysates were monitored for eIF-2α phosphorylation by immunoblotting with antibodies specific for phosphorylated eIF-2a (P-eIF-2α) and total eIF-2α (FIG. 3a)

[4] = test system: bone marrow derived macrophages (BMDMs); format: cell-based, mouse; details: BMDMs preincubated with poly(IC) 6 hrs before infection
[5] = test system: S. typhimurium; assay: Systemic S. typhimurium infection of mice pretreated with poly(IC); format: in vivo
Procedure: Mice (7-10 weeks old) were injected i.p. with either PBS or 200-300 μg poly(IC) in PBS. After 20 hrs, mice were injected i.p. with 10^6 S. typhiumurium 14028 in PBS. Mice that were still alive were sacrificed after 24 hrs and their spleens removed. For certain experiments, tissue was homogenized in PBS+0.1% Triton X-100. To determine bacterial counts, tissue homogenates were diluted in PBS and plated on LB agar and colonies were counted after overnight incubation at 37° C.
B. Mice (wt and PKR−/−) were Injected i.p. with PBS or 200-300 μg Poly(IC) in PBS
After 20 hrs the mice were injected i.p. with 10^6 S. typhimurium (14028) bacteria suspended in PBS. After 24 hrs, survival was monitored and mice that were still alive were sacrificed and the numbers of live bacteria within their spleens determined. * represents p=0.007. (FIG. 7b)
C. Mice were Treated as Above and Parts of their Spleens Analyzed for the Presence Of Apoptotic Cells by TUNEL Staining
Photograph was taken from the splenic red pulp where macrophages reside. (FIG. 7c)

[6] = test system: A1/Bfl1; assay: Immunoblotting of A1/Bfl1 and cIAP-1 after poly(IC) transfection and LPS; format: cell-based, mouse; details: wt BMDMs, poly(IC) transfection followed by LPS
Procedure: PKR+/+ and PKR−/− BMDMs were transfected with or without poly(IC) using Lipofectamine (Diebold et al. Nature 424, 324-328, 2003). After 6 hrs, LPS was added and the levels of A1/Bfl1 and cIAP-1 were examined by immunoblotting. (FIG. 5b)

[7] = test system: PKR−/− BMDMs; format: cell-based, mouse
Procedure: A. Bone marrow derived macrophages (BMDMs) from PKR+/+ and PKR−/− mice were left untreated or treated with LPS plus SB202190 or LT (2.5 μg/ml PA+500 ng/ml LF), 15-deoxy-12,14-prostaglandin J2 (5 μM), or doxorubicin (10 μg/ml), as indicated. After 16 hrs, the cells were stained with Hoechst 33258 (blue) or annexin V-Alexa568 (red). […] (FIG. 9a) B. Bone marrow derived macrophages (BMDMs) from PKR+/+ or PKR−/− mice were incubated with LPS for various time periods (in days) and analyzed by TUNEL staining to determine the extent of apoptosis. […] (FIG. 9b)

[8] = test system: J774A.1 macrophage-like cells; assay: Nucleosomal DNA ladder in J774A.1 cells incubated with LPS plus SB202190 and pan-caspase inhibitor; format: cell-based; details: inhibitor 10, 100, 200 μM, 18 hrs
Procedure: A. J774A.1 macrophage-like cells were incubated with LPS plus SB202190 (10 μM) whereas NIH3T3 fibroblasts were incubated with mouse TNF-α (10 ng/ml) plus cycloheximide (25 μg/ml). At the indicated time points cell lysates were prepared and analyzed by immunoblotting with antibodies specific to caspase-8. (FIG. 8a) B. J774A.1 macrophage-like cells were incubated with LPS plus SB202190 (10 μm), whereas NIH3T3 fibroblasts were incubated with mouse TNF-α (10 ng/ml) plus cycloheximide (25 μg/ml). At the indicated time points cell lysates were prepared and analyzed by immunoblotting with antibodies specific to caspase-3. (FIG. 8b) C. J774A.1 macrophage-like cells were incubated with or without LPS in the absence or presence of SB202190. When indicated, increasing concentrations (10, 100, and 200 μM) of a pan-caspase inhibitor (ZVAD-FMK) were added. After 18 hrs, genomic DNA was isolated and analyzed by agarose gel electrophoresis and EtBr staining for appearance of nucleosomal ladders indicative of apoptosis. (FIG. 8c)

[9] = with p38 inhibition (SB202190 10 μM), 18 hrs

## lipoteichoiec acid [LTA]
[1]
  apoptosis of IKKβ-deficient macrophages: underwent apoptosis

## TNF-α
[1]
  apoptosis of IKKβ-deficient macrophages: underwent apoptosis

## poly(IC)
[2]; without p38 inhibition, 18 hrs
  apoptotic response of BMDMs: weak apoptotic response
[2]; poly(IC) transfection, LPS added 6 hrs later, 18 hrs
  apoptosis after transfection versus simple addition to culture medium: higher level of apoptosis
[2]; with LPS, without SB202190
  sensitization of BMDMs to LPS-induced apoptosis: renders BMDMs susceptible to LPS-induced apoptosis
[3]; poly(IC) introduced by transfection (lipofectamine)
  PKR activity after transfection versus simple addition to culture medium: higher levels of PKR activity
[3]
  PKR activation (autophosphorylation, eIF2α phosphorylation): rapidly activated
[4]
  effect on apoptosis in response to live S. typhimurium or Y. pseudotuberculosis: potentiated apoptosis
[1]
  apoptosis of IKKβ-deficient macrophages: more susceptible
[5]; PKR−/− mice, poly(IC) pretreatment
  enhancement of bacterial load, apoptosis or mortality: little enhancement
[5]; S. typhimurium infected wt mice, poly(IC) pretreatment
  number of apoptotic cells in the red pulp of the spleens: increased the number of apoptotic cells
[5]; wt mice, 200-300 μg poly(IC) i.p. before S. typhimurium, 24 hrs
  increase in number of live bacteria recovered from the spleen: 3.5 fold
[5]; wt mice, poly(IC) pretreatment
  mortality caused by S. typhimurium infection: increased the mortality
[6]
  accumulation of A1/Bfl1: inhibited the accumulation

## Oc1ccc(-c2nc(-c3ccncc3)c(-c3ccc(F)cc3)[nH]2)cc1 [SB202190]
[2]; in the presence of SB202190 (10 μM), 18 hrs, TUNEL
  macrophage apoptosis induced by heat-inactivated B. anthracis: extensive macrophage apoptosis

## Pam3CSK4 [SBLP]
[2]; [9]
  apoptotic response of BMDMs: Little apoptosis

## lipopolysaccharide [LPS]
[2]; [9]
  apoptotic response of BMDMs: strong apoptotic response
[2]; wt BMDMs, without p38 inhibition, prolonged incubation (days)
  apoptosis on prolonged incubation: resulted in apoptosis
[3]
  PKR activation (autophosphorylation, eIF2α phosphorylation): rapidly activated
[1]
  apoptosis of IKKβ-deficient macrophages: underwent apoptosis

## COc1cccc2c1C(=O)c1c(O)c3c(c(O)c1C2=O)C[C@@](O)(C(=O)CO)C[C@@H]3O[C@H]1C[C@H](N)[C@H](O)[C@H](C)O1 [doxorubicin]
[7]; PKR−/− BMDMs, 16 hrs, annexin V
  apoptosis of PKR−/− BMDMs: still underwent apoptosis

## COC(=O)C[C@H](NC(=O)[C@H](C)NC(=O)[C@@H](NC(=O)OCc1ccccc1)C(C)C)C(=O)CF [pan-caspase inhibitor, ZVAD-FMK] (Cbz-Val-Ala-Asp(OMe)-CH2F)
[8]
  effect on LPS-induced macrophage apoptosis: apoptosis was inhibited

## CCCCCC=CC=C1C(=O)C=C[C@@H]1CC=CCCCC(=O)O [15-deoxy-12,14-prostaglandin J2]
[7]
  apoptosis of PKR−/− BMDMs: still underwent apoptosis

## C[C@@H]1C[C@@H]([C@H](O)CC2CC(=O)NC(=O)C2)C(=O)[C@@H](C)C1 [cycloheximide]
[2]; wt or PKR−/− BMDMs, cycloheximide 10 μg/ml
  apoptosis on mere incubation: triggered apoptosis
